Patent EP0677522A1, “8-METHOXYQUINOLONECARBOXYLIC ACID DERIVATIVE” (priority 1992, dated 1994)
In brackets after ≈: the same amount, converted by molar mass.

Tests used:
P. mirabilis IFO 3849 = assay: In vitro antibacterial activity (MIC), Japan Society of Chemotherapy Standard; format: cell-based; conditions: Proteus mirabilis, IFO3849; inoculated cells 10⁶ cells/ml
Procedure: (§1) The in vitro antibacterial activity (minimum inhibitory concentration, MIC, µg/ml) of the test compounds was determined according to Japan Society of Chemotherapy Standard [Chemotherapy, vol. 29, pp 76-79 (1981)].
(§2) Inoculated cells were 10⁶ cells/ml and the strain with * was incubated in a medium supplemented with 10% horse blood. The mark "1)" means quinolone resistant MRSA and "2)" means quinolone resistant bacteria.

E. faecium EFMY-28 = assay: as above; format: cell-based; conditions: Enterococcus faecium, EFMY28; inoculated cells 10⁶ cells/ml
Procedure: as §1, §2

[1] = test system: S. epidermidis ATCC 12228; assay: as above; format: cell-based; conditions: Staphylococcus epidermidis, ATCC12228; inoculated cells 10⁶ cells/ml
Procedure: as §1, §2

[2] = test system: Pseudomonas aeruginosa IFO 12582; assay: as above; format: cell-based; conditions: IFO12582, inoculated cells 10⁶ cells/ml
Procedure: as §1, §2

Shigella flexneri EW-10 = assay: as above; format: cell-based; conditions: EW10, inoculated cells 10⁶ cells/ml
Procedure: as §1, §2

S. aureus No.88 = assay: as above; format: cell-based; conditions: Staphylococcus aureus; quinolone resistant MRSA; inoculated cells 10⁶ cells/ml
Procedure: as §1, §2

E. faecium EFMY-207 = assay: as above; format: cell-based; conditions: Enterococcus faecium, EFMY207; quinolone resistant bacteria; inoculated cells 10⁶ cells/ml
Procedure: as §1, §2

S. epidermidis SEY-223 = assay: as above; format: cell-based; conditions: Staphylococcus epidermidis, SEY223; quinolone resistant bacteria; inoculated cells 10⁶ cells/ml
Procedure: as §1, §2

[3] = test system: Proteus vulgaris IFO 3988; assay: as above; format: cell-based; conditions: IFO3988, inoculated cells 10⁶ cells/ml
Procedure: as §1, §2

[4] = test system: Enterobacter cloacae IFO 12937; assay: as above; format: cell-based; conditions: IFO12937, inoculated cells 10⁶ cells/ml
Procedure: as §1, §2

[5] = test system: Staphylococcus aureus FDA 209P; assay: as above; format: cell-based; conditions: FDA209P, inoculated cells 10⁶ cells/ml
Procedure: as §1, §2

E. avium EAY-30 = assay: as above; format: cell-based; conditions: Enterococcus avium, EAY30, inoculated cells 10⁶ cells/ml
Procedure: as §1, §2

S. viridans America = assay: as above; format: cell-based; conditions: Streptococcus viridans; inoculated cells 10⁶ cells/ml; medium supplemented with 10% horse blood
Procedure: as §1, §2

Klebsiella pneumoniae DT = assay: as above; format: cell-based; conditions: inoculated cells 10⁶ cells/ml
Procedure: as §1, §2

[6] = test system: Corynebacterium diphtheriae Tronto; assay: as above; format: cell-based; conditions: inoculated cells 10⁶ cells/ml, medium supplemented with 10% horse blood
Procedure: as §1, §2

[7] = test system: Streptococcus pyogenes C-203; assay: as above; format: cell-based; conditions: C203, inoculated cells 10⁶ cells/ml, medium supplemented with 10% horse blood
Procedure: as §1, §2

[8] = test system: Acinetobacter calcoaceticus ATCC 13006; assay: as above; format: cell-based; conditions: ATCC13006, inoculated cells 10⁶ cells/ml
Procedure: as §1, §2

[9] = test system: Escherichia coli NIHJ JC-2; assay: as above; format: cell-based; conditions: NIHJJC2, inoculated cells 10⁶ cells/ml
Procedure: as §1, §2

[10] = test system: Citrobacter freundii IFO 12681; assay: as above; format: cell-based; conditions: IFO12681, inoculated cells 10⁶ cells/ml
Procedure: as §1, §2

[11] = test system: Enterococcus faecalis LS-101; assay: as above; format: cell-based; conditions: LS101, inoculated cells 10⁶ cells/ml
Procedure: as §1, §2

[12] = test system: Serratia marcescens IFO 12648; assay: as above; format: cell-based; conditions: IFO12648, inoculated cells 10⁶ cells/ml
Procedure: as §1, §2

E. faecalis EFY-204 = assay: as above; format: cell-based; conditions: Enterococcus faecalis, EFY204; quinolone resistant bacteria; inoculated cells 10⁶ cells/ml
Procedure: as §1, §2

S. pneumoniae Type-III = assay: as above; format: cell-based; conditions: Streptococcus pneumoniae; inoculated cells 10⁶ cells/ml; medium supplemented with 10% horse blood
Procedure: as §1, §2

E. coli KC-14 [13] = assay: MIC of the infectious bacteria used for experimental infection; format: cell-based; conditions: Escherichia coli, KC14; infectious strain of the mouse protection test
Procedure: as §1
(§3) Experimental infection was caused by intraperitoneal inoculation of respective bacteria to male mice. One hour after the inoculation, a test compound was orally administered to the mice. The therapeutic effect of each test compound was evaluated by reference to the 50% effective dose (ED₅₀) which was based on the survival ratio at 7 days after the administration according to the probit method [Proc. Soc. Exp. Med., Vol. 57, p 261-264 (1944)]. The minimum inhibitory concentration (MIC) of the infectious bacteria used was also determined. […]

S. aureus Smith [14] = assay: as above; format: cell-based; conditions: Staphylococcus aureus; infectious strain of the mouse protection test
Procedure: as §1, §3

S. aureus MRSA Y-238 [15] = assay: as above; format: cell-based; conditions: Staphylococcus aureus, infectious strain of the mouse protection test
Procedure: as §1, §3

E. coli KC-14 [16] = assay: Protection of mice from experimental infection; format: in vivo; conditions: Table 3-2: male mice; intraperitoneal inoculation (744×LD₅₀); oral administration one hour after inoculation; survival ratio at 7 days
Procedure: as §3

S. aureus Smith [17] = assay: Protection of mice from experimental infection; format: in vivo; conditions: male mice; intraperitoneal inoculation 2.8×10⁶ cells/mouse (123×LD₅₀); oral administration one hour after inoculation; survival ratio at 7 days, probit method
Procedure: as §3

S. aureus MRSA Y-238 [18] = assay: Protection of mice from experimental infection; format: in vivo; conditions: Table 3-2: male mice; intraperitoneal inoculation 7.5×10⁵ cells/mouse (185×LD₅₀); oral administration one hour after inoculation; survival ratio at 7 days
Procedure: as §3

[19] = test system: Mycoplasma pneumoniae ATCC 29343; assay: Antibacterial effect against specific bacteria (MIC); format: cell-based; conditions: ATCC29343, same manner as Experimental Example 1
Procedure: as §1
(§4) In the same manner as in Experimental Example 1, the antibacterial effect against specific bacteria such as Chlamydia, Mycoplasma and acid-fast bacteria and anaerobic bacteria was determined.

B. fragilis BFY-18 = assay: as above; format: cell-based; conditions: Bacteroides fragilis, BFY18; same manner as Experimental Example 1
Procedure: as §1, §4

[20] = test system: Mycobacterium smegmatis IFO 3153; assay: as above; format: cell-based; conditions: Mycolicibacterium smegmatis, IFO3153; same manner as Experimental Example 1
Procedure: as §1, §4

[21] = test system: Chlamydia trachomatis D/UW-3Cx; assay: as above; format: cell-based; conditions: same manner as Experimental Example 1
Procedure: as §1, §4

[22] = test system: Ureaplasma urealyticum ATCC 27618; assay: as above; format: cell-based; conditions: ATCC27618, same manner as Experimental Example 1
Procedure: as §1, §4

COc1c(N2CC[C@@](CN)(CF)C2)c(F)cc2c(=O)c(C(=O)O)cn(C3CC3)c12 [Example 17, (S)-7-(3-aminomethyl-3-fluoromethylpyrrolidin-1-yl)-1-cyclopropyl-6-fluoro-1,4-dihydro-8-methoxy-4-oxo-3-quinolinecarboxylic acid]
MIC (P. mirabilis IFO 3849): 0.78 mg/L (≈ 1.91 µM)
MIC (E. faecium EFMY-28): 0.39 mg/L (≈ 0.957 µM)
MIC [1]: 0.025 mg/L (≈ 0.0614 µM)
MIC [2]: 1.56 mg/L (≈ 3.83 µM)
MIC (Shigella flexneri EW-10): 0.025 mg/L (≈ 0.0614 µM)
MIC (S. aureus No.88): 0.78 mg/L (≈ 1.91 µM)
MIC (E. faecium EFMY-207): 3.13 mg/L (≈ 7.68 µM)
MIC (S. epidermidis SEY-223): 0.78 mg/L (≈ 1.91 µM)
MIC [3]: 0.78 mg/L (≈ 1.91 µM)
MIC [4]: 0.39 mg/L (≈ 0.957 µM)
MIC [5]: 0.012 mg/L (≈ 0.0295 µM)
MIC (E. avium EAY-30): 0.2 mg/L (≈ 0.491 µM)
MIC (S. viridans America): 0.1 mg/L (≈ 0.245 µM)
MIC (Klebsiella pneumoniae DT): 0.05 mg/L (≈ 0.123 µM)
MIC [6]: 0.025 mg/L (≈ 0.0614 µM)
MIC [7]: 0.1 mg/L (≈ 0.245 µM)
MIC [8]: 0.1 mg/L (≈ 0.245 µM)
MIC [9]: 0.1 mg/L (≈ 0.245 µM)
MIC [10]: 0.2 mg/L (≈ 0.491 µM)
MIC [11]: 0.025 mg/L (≈ 0.0614 µM)
MIC [12]: 0.39 mg/L (≈ 0.957 µM)
MIC (E. faecalis EFY-204): 1.56 mg/L (≈ 3.83 µM)
MIC (S. pneumoniae Type-III): 0.05 mg/L (≈ 0.123 µM)
MIC (E. coli KC-14 [13]): 0.025 mg/L
MIC (S. aureus Smith [14]): ≤ 0.006 mg/L
MIC (S. aureus MRSA Y-238 [15]): 0.39 mg/L
ED₅₀ (mg/mouse) (95% confidence limit) (E. coli KC-14 [16]): 0.011(0.008-0.015) mg/mouse
ED₅₀ (mg/mouse) (95% confidence limit) (S. aureus Smith [17]): 0.031(0.021-0.044) mg/mouse
ED₅₀ (mg/mouse) (95% confidence limit) (S. aureus MRSA Y-238 [18]): 1.540(1.103-2.151) mg/mouse
MIC [19]: 0.1 mg/L (≈ 0.245 µM)
MIC (B. fragilis BFY-18): 0.2 mg/L (≈ 0.491 µM)
MIC [20]: 0.1 mg/L (≈ 0.245 µM)
MIC [21]: 0.025 mg/L (≈ 0.0614 µM)
MIC [22]: 0.39 mg/L (≈ 0.957 µM)
